Experimental data published in BindingDB's records for doi:10.1016/S0960-894X(00)80454-0 (1992).

Experiment: In vitro binding affinity using [3H]LTB4 radioligand binding to leukotriene B4 receptor in human neutrophil binding assay

Ki	SMILES
3.5 nM	CCCc1c(OCCCOc2cc(O)c(OCC)cc2CC)ccc2c1OC(C(=O)O)CC2 (configuration not stated) [7-[3-(4-Ethoxy-2-ethyl-5-hydroxy-phenoxy)-propoxy]-8-propyl-chroman-2-carboxylic acid]
1.9 nM	CCCc1c(OCCCOc2cc(O)c(OC)cc2CC)ccc2c1OC(C(=O)O)CC2 (configuration not stated) [7-[3-(2-Ethyl-5-hydroxy-4-methoxy-phenoxy)-propoxy]-8-propyl-chroman-2-carboxylic acid]
